Assay results taken from US11279681B2, “3-alkyl bicyclic [4,5,0] hydroxamic acids as HDAC inhibitors” (Valo Health, Inc., priority 2015, dated 2022).

biological target: T1, HDAC6 (Homo sapiens, UniProt Q9UBN7); assay: In vitro histone deacetylase assay: enzymatic HDAC6 electrophoretic mobility shift assay; format: biochemical; details: full length human recombinant HDAC6, 1 nM enzyme, 2 μM peptide substrate RHKK(Ac)-NH2, 25° C.; read-out: Inhibitory Concentration (IC50) Values for Representative Compounds against HDAC6, Activity Range
T1 sequence (Q9UBN7 1-1215): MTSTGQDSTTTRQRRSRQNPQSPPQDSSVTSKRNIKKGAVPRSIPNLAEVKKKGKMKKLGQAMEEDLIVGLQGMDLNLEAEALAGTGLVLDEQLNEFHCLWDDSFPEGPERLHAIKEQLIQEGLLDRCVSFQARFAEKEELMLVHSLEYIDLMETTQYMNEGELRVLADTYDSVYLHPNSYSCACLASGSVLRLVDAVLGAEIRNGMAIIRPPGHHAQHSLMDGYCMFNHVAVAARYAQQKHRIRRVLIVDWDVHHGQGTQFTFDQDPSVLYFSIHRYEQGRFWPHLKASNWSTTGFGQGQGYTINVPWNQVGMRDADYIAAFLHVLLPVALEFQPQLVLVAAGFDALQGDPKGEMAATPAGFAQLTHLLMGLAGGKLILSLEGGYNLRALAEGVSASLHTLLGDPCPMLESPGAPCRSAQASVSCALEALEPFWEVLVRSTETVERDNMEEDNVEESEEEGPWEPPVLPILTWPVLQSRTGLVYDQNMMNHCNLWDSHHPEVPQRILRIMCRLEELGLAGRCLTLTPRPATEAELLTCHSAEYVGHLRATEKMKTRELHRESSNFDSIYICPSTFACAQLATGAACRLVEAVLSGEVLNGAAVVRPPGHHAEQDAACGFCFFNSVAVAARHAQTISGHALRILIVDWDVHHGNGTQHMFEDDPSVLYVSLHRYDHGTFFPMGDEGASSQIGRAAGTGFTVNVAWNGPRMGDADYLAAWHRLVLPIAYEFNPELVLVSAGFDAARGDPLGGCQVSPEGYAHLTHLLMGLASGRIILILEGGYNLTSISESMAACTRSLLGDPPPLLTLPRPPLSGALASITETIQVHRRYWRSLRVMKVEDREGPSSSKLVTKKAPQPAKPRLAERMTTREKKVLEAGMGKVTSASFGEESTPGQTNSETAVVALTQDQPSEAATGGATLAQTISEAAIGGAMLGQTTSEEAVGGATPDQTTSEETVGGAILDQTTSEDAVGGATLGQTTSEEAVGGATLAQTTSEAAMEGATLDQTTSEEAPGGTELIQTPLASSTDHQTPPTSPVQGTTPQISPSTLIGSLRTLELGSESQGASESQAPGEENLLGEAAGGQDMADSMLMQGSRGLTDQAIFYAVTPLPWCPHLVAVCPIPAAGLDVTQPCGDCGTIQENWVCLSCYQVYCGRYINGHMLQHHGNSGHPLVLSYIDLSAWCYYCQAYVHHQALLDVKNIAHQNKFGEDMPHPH
Experimental: The enzymatic HDAC6 assay was performed using electrophoretic mobility shift assay. […] The enzymatic reactions were assembled in 384 well plates in a total volume of 25 μL in a reaction buffer composing: 100 mM HEPES, pH7.5, 25 mM KCl, 0.1% bovine serum albumin, 0.01% Triton X-100, 1% DMSO (from compounds) 2 μM of the fluorescently labeled peptide substrate and enzyme. The enzyme was added at a final concentration of 1 nM. The peptide substrate RHKK(Ac)-NH2 was used. The compounds were tested at 12 concentrations spaced by 3× dilution intervals. Negative control samples (0%-inhibition in the absence of inhibitor) and positive control samples (100%-inhibition) were assembled in replicates of four in each assay plate. The reactions were incubated at 25° C. and quenched by the addition of 45 μL of termination buffer (100 mM HEPES, pH 7.5, 0.01% Triton X-100, 0.05% SDS).
The terminated assay plates were analyzed on LabChip® 3000 microfluidic electrophoresis instrument (Perkin Elmer/Caliper Life Sciences). The fluorescence intensity of the electrophoretically separated de-acetylated product and substrate peptide was measured. Activity in each sample was determined as the product to sum ratio (PSR): P/(S+P), where P is the peak height of the product peptide and S is the peak height of the substrate peptide. Percent inhibition (Pinh) is determined using the following equation:
Pinh=(PSR0%−PSRinh)/(PSR0%−PSR100%)*100, where PSRinh is the product sum ratio in the presence of inhibitor, PSR0% is the average product sum ration in the absence of inhibitor and PSR100% is the average product sum ratio in 100%-inhibition control samples. The IC50 values of inhibitors were determined by fitting the %-inhibition curves with 4 parameter dose-response model using XLfit 4 software.

Row | Compound | IC50 [nM]
1 | O=C(NO)c1ccc2c(c1)OCCN(c1nc3ccccc3n1CC1CCCCC1)C2 | 100 to 500
2 | CC(C)(C)Oc1ccc(CN2CC(=O)Nc3ccc(C(=O)NO)cc3C2)cc1 | 100 to 500
3 | COc1ccc(OC(=O)N2CCOc3cc(C(=O)NO)ccc3C2)cc1 | ≤ 100
4 | O=C1CN(Cc2ccc(-n3cccc3)cc2)Cc2cc(C(=O)NO)ccc2N1 | ≤ 100
5 | O=C(NO)c1ccc2c(c1)OCCN(c1nc3ccccc3n1CC1CCOCC1)C2 | 100 to 500
6 | O=C1CN(Cc2ccnc(N3CCOCC3)c2)Cc2cc(C(=O)NO)ccc2N1 | 100 to 500
7 | COc1ccc(CN2Cc3ccc(C(=O)NO)cc3OCC2(C)C)cc1 | 100 to 500
8 | O=C1CN(Cc2ccn3ccnc3c2)Cc2cc(C(=O)NO)ccc2N1 | 100 to 500
9 | O=C(NO)c1ccc2c(c1)OCCN(C(=O)N1CCCCC1)C2 | ≤ 100
10 | O=C(NO)c1ccc2c(c1)OCCN(S(=O)(=O)N1CCCCC1)C2 | ≤ 100
11 | COc1ccc(S(=O)(=O)N2Cc3ccc(C(=O)NO)cc3O[C@H](C)C2)cc1 | 100 to 500
12 | COc1ccc(NC(=O)N2Cc3ccc(C(=O)NO)cc3O[C@H](C)C2)cc1 | 100 to 500
13 | C[C@H]1CN(c2ccccc2)Cc2ccc(C(=O)NO)cc2O1 | > 500
14 | COc1ccc(S(=O)(=O)N2Cc3ccc(C(=O)NO)cc3O[C@@H](C)C2)cc1 | > 500
15 | COc1ccc(CN2Cc3ccc(C(=O)NO)cc3OC[C@H]2C(C)C)cc1 | ≤ 100
16 | CC(C)[C@@H]1COc2cc(C(=O)NO)ccc2CN1c1ccccc1 | 100 to 500
17 | COc1ccc(NC(=O)N2Cc3ccc(C(=O)NO)cc3OC[C@H]2C(C)C)cc1 | 100 to 500
18 | CC(C)[C@H]1COc2cc(C(=O)NO)ccc2CN1c1ccccc1 | ≤ 100
19 | COc1ccc(NC(=O)N2Cc3ccc(C(=O)NO)cc3OC[C@@H]2C(C)C)cc1 | ≤ 100
20 | O=C1CN(Cc2ccccc2)Cc2cc(C(=O)NO)ccc2N1 [4-benzyl-N-hydroxy-2-oxo-2,3,4,5-tetrahydro-1H-benzo[e][1,4]diazepine-7-carboxamide] | 100 to 500

More lines, now with the values ahead:

Row | IC50 [nM] | Compound
21 | ≤ 100 | O=C(NO)c1ccc2c(c1)OCCN(c1nc3ccccc3o1)C2
22 | > 500 | CN(C)CCN1CCOc2cc(C(=O)NO)ccc2C1
23 | > 500 | CC(C)N1CCC(CN2CC(=O)Nc3ccc(C(=O)NO)cc3C2)CC1
24 | ≤ 100 | O=C1CN(Cc2ccc(-c3nccs3)cc2)Cc2cc(C(=O)NO)ccc2N1
25 | > 500 | COc1ccc(CN2CCOc3ccc(C(=O)NO)cc3C2)nc1
26 | 100 to 500 | COc1ccc(CN2CCOc3cc(C(=O)NO)ccc3C2)nc1
27 | > 500 | COc1ccc(CN2CCOc3ccc(C(=O)NO)cc3C2)cn1
28 | 100 to 500 | COc1ccc(CN2CCOc3cc(C(=O)NO)ccc3C2)cn1
29 | ≤ 100 | O=C1CN(Cc2ccc3ccccc3c2)Cc2cc(C(=O)NO)ccc2N1
30 | > 500 | CN(C(=O)N1CCOc2cc(C(=O)NO)ccc2C1)c1ccccc1
31 | 100 to 500 | C[C@@H]1CN(c2ccccc2)Cc2ccc(C(=O)NO)cc2O1
32 | 100 to 500 | COc1ccc(CN2Cc3ccc(C(=O)NO)cc3O[C@H](C)C2)cc1
33 | 100 to 500 | COc1ccc(CN2Cc3ccc(C(=O)NO)cc3O[C@@H](C)C2)cc1
34 | ≤ 100 | COc1ccc(NC(=O)N2Cc3ccc(C(=O)NO)cc3O[C@@H](C)C2)cc1
35 | ≤ 100 | CC(C)[C@@H]1COc2cc(C(=O)NO)ccc2CN1
36 | ≤ 100 | CC(C)[C@@H]1COc2cc(C(=O)NO)ccc2CN1C
37 | ≤ 100 | CC(C)[C@H]1COc2cc(C(=O)NO)ccc2CN1
38 | ≤ 100 | COc1ccc(CN2Cc3ccc(C(=O)NO)cc3OC[C@@H]2C(C)C)cc1
39 | ≤ 100 | CC(C)[C@H]1COc2cc(C(=O)NO)ccc2CN1C
40 | ≤ 100 | COCCN(C)C(=O)N1Cc2ccc(C(=O)NO)cc2OC[C@@H]1C
41 | ≤ 100 | O=C(NO)c1ccc2c(c1)OCCN(C(=O)OC1CCCCC1)C2
42 | > 500 | O=C(NO)c1ccc2c(c1)OCCN(C1CCCCC1)C2 [4-cyclohexyl-N-hydroxy-2,3,4,5-tetrahydrobenzo[f][1,4]oxazepine-8-carboxamide]
